Like-named read-outs stand apart in the source and are kept apart here. Blank lines part the entries; values can stand above or below the compound they belong to.
Assays:
Assay type in all cases: cell-based
[1] = system: Renilla; test: Renilla signal in NR2F6 agonist screening, cmpd/DMSO; settings: Renilla
[2] = target: T1, NR2F6 LBD (Homo sapiens, UniProt P10588); test: NR2F6 LBD transient transfection
T1 construct: expressed in transfected cells
T1 sequence (P10588 165-393 limits assumed): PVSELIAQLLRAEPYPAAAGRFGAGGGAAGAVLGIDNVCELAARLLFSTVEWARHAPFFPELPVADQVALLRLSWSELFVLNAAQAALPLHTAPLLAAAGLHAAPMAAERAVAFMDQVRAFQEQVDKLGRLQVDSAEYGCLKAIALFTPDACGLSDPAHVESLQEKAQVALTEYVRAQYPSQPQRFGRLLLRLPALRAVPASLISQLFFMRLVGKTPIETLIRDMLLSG
Procedure, shortened: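 LBD-transfected cells treated at 40, 10, 2 and 0.5 μM (4 replicates); cytotoxicity measured in parallel, normalized to DMSO (0%) and zero signal (100%). Higher concentrations excluded where signal loss reflected toxicity.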

[3] = system: HEK293 pGL4; test: Firefly_pGL signal, cmpd/DMSO (pGL4 control cells); settings: Homo sapiens
[4] = system: Renilla; test: Renilla signal, LBD, cmpd/DMSO (NR2F6 LBD transfected cells)
[5] = target: T2, NR2F6 (Homo sapiens, UniProt P10588); test: NR2F6 agonist screening, Firefly signal cmpd/DMSO
T2 construct: expressed in transfected cells; also transient transfection
T2 sequence (P10588 1-404): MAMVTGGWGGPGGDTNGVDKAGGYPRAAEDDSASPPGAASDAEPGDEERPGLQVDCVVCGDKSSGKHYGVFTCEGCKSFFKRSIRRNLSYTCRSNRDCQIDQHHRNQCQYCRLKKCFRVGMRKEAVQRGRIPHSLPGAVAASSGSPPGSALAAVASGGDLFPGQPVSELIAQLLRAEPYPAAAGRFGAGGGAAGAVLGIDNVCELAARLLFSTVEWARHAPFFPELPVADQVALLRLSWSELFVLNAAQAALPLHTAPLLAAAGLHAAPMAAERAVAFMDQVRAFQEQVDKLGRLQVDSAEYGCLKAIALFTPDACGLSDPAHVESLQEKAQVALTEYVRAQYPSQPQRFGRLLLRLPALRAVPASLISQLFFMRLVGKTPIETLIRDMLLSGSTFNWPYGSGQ

[6] = read-out: Renilla F4, cmpd/DMSO (mean)
[7] = F4, 1% FBS, read-out: Renilla, F4, 1% FBS, cmpd/DMSO (mean)
[8] = F4, 10% FBS, read-out: Renilla, F4, 10% FBS, cmpd/DMSO (mean)
[9] = HEK293, 0.5 uM, read-out: Firefly pGL4, cmpd/DMSO (mean)
[10] = HEK293, 2 uM, read-out: Firefly pGL4, cmpd/DMSO (mean)
[11] = HEK293, 10 uM, read-out: Firefly pGL4, cmpd/DMSO (mean)
[12] = HEK293, 40 uM, read-out: Firefly pGL4, cmpd/DMSO (mean)
[13] = HEK293, pGL4, 1% FBS, 0.5 uM, read-out: Firefly, pGL4, 1% FBS, cmpd/DMSO (mean)
[14] = HEK293, pGL4, 1% FBS, 2 uM, read-out: Firefly, pGL4, 1% FBS, cmpd/DMSO (mean)
[15] = HEK293, pGL4, 1% FBS, 10 uM, read-out: Firefly, pGL4, 1% FBS, cmpd/DMSO (mean)
[16] = HEK293, pGL4, 1% FBS, 40 uM, read-out: Firefly, pGL4, 1% FBS, cmpd/DMSO (mean)
[17] = HEK293, pGL4, 10% FBS, 0.5 uM, read-out: Firefly, pGL4, 10% FBS, cmpd/DMSO (mean)
[18] = HEK293, pGL4, 10% FBS, 2 uM, read-out: Firefly, pGL4, 10% FBS, cmpd/DMSO (mean)
[19] = HEK293, pGL4, 10% FBS, 10 uM, read-out: Firefly, pGL4, 10% FBS, cmpd/DMSO (mean)
[20] = HEK293, pGL4, 10% FBS, 40 uM, read-out: Firefly, pGL4, 10% FBS, cmpd/DMSO (mean)

Firefly LBD, cmpd/DMSO (mean) ([2]; 0.5 uM): 1.5
Firefly LBD, cmpd/DMSO (mean) ([2]; 2 uM): 1.5
Firefly LBD, cmpd/DMSO (mean) ([2]; 10 uM): 1.9
Firefly LBD, cmpd/DMSO (mean) ([2]; 40 uM): 1.8
Firefly F4, cmpd/DMSO (mean) ([5]; 0.5 uM): 1.5
Firefly F4, cmpd/DMSO (mean) ([5]; 2 uM): 2.3
Firefly F4, cmpd/DMSO (mean) ([5]; 10 uM): 2.1
Firefly F4, cmpd/DMSO (mean) ([5]; 40 uM): 2.8
F4, Firefly/Renilla for S/B(F4) > 3 ([5]; 1% FBS, 40 uM): 2.6
Firefly, F4/pGL4 for S/B(F4) > 3 ([5]; 1% FBS, 40 uM): 4.0
F4, Firefly/Renilla for S/B(F4) > 3 ([5]; 10% FBS, 40 uM): 2.3
Firefly, F4/pGL4 for S/B(F4) > 3 ([5]; 10% FBS, 40 uM): 2.3
Firefly, F4, 1% FBS, cmpd/DMSO (mean) ([5]; 1% FBS, 0.5 uM): 1.0
Firefly, F4, 1% FBS, cmpd/DMSO (mean) ([5]; 1% FBS, 2 uM): 1.2
Firefly, F4, 1% FBS, cmpd/DMSO (mean) ([5]; 1% FBS, 10 uM): 2.0
Firefly, F4, 1% FBS, cmpd/DMSO (mean) ([5]; 1% FBS, 40 uM): 5.4
Firefly, F4, 10% FBS, cmpd/DMSO (mean) ([5]; 10% FBS, 0.5 uM): 1.1
Firefly, F4, 10% FBS, cmpd/DMSO (mean) ([5]; 10% FBS, 2 uM): 1.0
Firefly, F4, 10% FBS, cmpd/DMSO (mean) ([5]; 10% FBS, 10 uM): 2.1
Firefly, F4, 10% FBS, cmpd/DMSO (mean) ([5]; 10% FBS, 40 uM): 4.6
SMILES: O=S1(=O)C[C@H](NCC2CCCO2)[C@@H](S(=O)(=O)c2cccs2)C1 (stereo partly drawn) [Compound D134]
fold induction at 0.5 µM [1, 6]: 1.1
fold induction at 2 µM [1, 6]: 1.2
fold induction at 10 µM [1, 6]: 1.3
fold induction at 40 µM [1, 6]: 1.5
fold induction at 0.5 µM [1, 7]: 1
fold induction at 2 µM [1, 7]: 1.2
fold induction at 10 µM [1, 7]: 1.4
fold induction at 40 µM [1, 7]: 2.1
fold induction at 0.5 µM [1, 8]: 1
fold induction at 2 µM [1, 8]: 1
fold induction at 10 µM [1, 8]: 1.3
fold induction at 40 µM [1, 8]: 2
fold induction at 0.5 µM [3, 9]: 1
fold induction at 2 µM [3, 10]: 1.3
fold induction at 10 µM [3, 11]: 1.6
fold induction at 40 µM [3, 12]: 1.7
fold induction at 0.5 µM [3, 13]: 1
fold induction at 2 µM [3, 14]: 1.3
fold induction at 10 µM [3, 15]: 1.3
fold induction at 40 µM [3, 16]: 1.4
fold induction at 0.5 µM [3, 17]: 1.2
fold induction at 2 µM [3, 18]: 1.3
fold induction at 10 µM [3, 19]: 1.7
fold induction at 40 µM [3, 20]: 2
Renilla LBD, cmpd/DMSO (mean) ([4]; 0.5 uM): 0.9
Renilla LBD, cmpd/DMSO (mean) ([4]; 2 uM): 0.9
Renilla LBD, cmpd/DMSO (mean) ([4]; 10 uM): 1.0
Renilla LBD, cmpd/DMSO (mean) ([4]; 40 uM): 0.7

Firefly LBD, cmpd/DMSO (mean) ([2]; 0.5 uM): 1.4
Firefly LBD, cmpd/DMSO (mean) ([2]; 2 uM): 1.7
Firefly LBD, cmpd/DMSO (mean) ([2]; 10 uM): 1.6
Firefly LBD, cmpd/DMSO (mean) ([2]; 40 uM): 2.8
Firefly F4, cmpd/DMSO (mean) ([5]; 0.5 uM): 1.7
Firefly F4, cmpd/DMSO (mean) ([5]; 2 uM): 2.4
Firefly F4, cmpd/DMSO (mean) ([5]; 10 uM): 1.9
Firefly F4, cmpd/DMSO (mean) ([5]; 40 uM): 2.8
F4, Firefly/Renilla for S/B(F4) > 3 ([5]; 1% FBS, 40 uM): 1.9
Firefly, F4/pGL4 for S/B(F4) > 3 ([5]; 1% FBS, 40 uM): 3.0
F4, Firefly/Renilla for S/B(F4) > 3 ([5]; 10% FBS, 40 uM): 1.9
Firefly, F4/pGL4 for S/B(F4) > 3 ([5]; 10% FBS, 40 uM): 2.3
Firefly, F4, 1% FBS, cmpd/DMSO (mean) ([5]; 1% FBS, 0.5 uM): 1.2
Firefly, F4, 1% FBS, cmpd/DMSO (mean) ([5]; 1% FBS, 2 uM): 1.6
Firefly, F4, 1% FBS, cmpd/DMSO (mean) ([5]; 1% FBS, 10 uM): 1.1
Firefly, F4, 1% FBS, cmpd/DMSO (mean) ([5]; 1% FBS, 40 uM): 3.3
Firefly, F4, 10% FBS, cmpd/DMSO (mean) ([5]; 10% FBS, 0.5 uM): 1.0
Firefly, F4, 10% FBS, cmpd/DMSO (mean) ([5]; 10% FBS, 2 uM): 0.7
Firefly, F4, 10% FBS, cmpd/DMSO (mean) ([5]; 10% FBS, 10 uM): 1.8
Firefly, F4, 10% FBS, cmpd/DMSO (mean) ([5]; 10% FBS, 40 uM): 3.7
SMILES: O=S1(=O)C[C@H](NCc2ccco2)[C@@H](S(=O)(=O)c2cccs2)C1 [Compound D135]
fold induction at 0.5 µM [1, 6]: 0.9
fold induction at 2 µM [1, 6]: 1.2
fold induction at 10 µM [1, 6]: 1
fold induction at 40 µM [1, 6]: 1.3
fold induction at 0.5 µM [1, 7]: 1
fold induction at 2 µM [1, 7]: 1.3
fold induction at 10 µM [1, 7]: 1.2
fold induction at 40 µM [1, 7]: 1.7
fold induction at 0.5 µM [1, 8]: 1
fold induction at 2 µM [1, 8]: 1.1
fold induction at 10 µM [1, 8]: 1.1
fold induction at 40 µM [1, 8]: 1.9
fold induction at 0.5 µM [3, 9]: 1
fold induction at 2 µM [3, 10]: 1.6
fold induction at 10 µM [3, 11]: 1.4
fold induction at 40 µM [3, 12]: 1.3
fold induction at 0.5 µM [3, 13]: 1
fold induction at 2 µM [3, 14]: 1
fold induction at 10 µM [3, 15]: 0.8
fold induction at 40 µM [3, 16]: 1.1
fold induction at 0.5 µM [3, 17]: 0.9
fold induction at 2 µM [3, 18]: 1.1
fold induction at 10 µM [3, 19]: 1.7
fold induction at 40 µM [3, 20]: 1.6
Renilla LBD, cmpd/DMSO (mean) ([4]; 0.5 uM): 0.9
Renilla LBD, cmpd/DMSO (mean) ([4]; 2 uM): 0.9
Renilla LBD, cmpd/DMSO (mean) ([4]; 10 uM): 0.8
Renilla LBD, cmpd/DMSO (mean) ([4]; 40 uM): 0.9
